From patent publication US20180318199A1, “Pharmaceutical Composition Having Anti-Aging Properties against High-Glucose” (TAIWAN LEADER BIOTECH CORP., priority 2017, published 2018)

How the values were obtained:
Type in all cases: cell-based, human
[1] = test system: HNDFs; assay: Cell-cycle distribution by flow cytometry (PI) in HNDFs; settings: ANM 10 μM or NAC 100 μM + HG 30 mM, 72 h; HG 71.2%, NG 46.5%
Description: Senescence is well-defined as an irreversible arrest in the G0/G1 phase of the cell-cycle, triggered by various physiological and chemical stimuli including HG. It is thus paradoxical that HG-induced senescence is associated with cell-cycle arrest. Please refer to FIG. 3A˜FIG. 3C, which are views showing HG-induced growth arrest blocked by ANM in HNDFs. As shown in the figures, to further explore this paradoxical relationship, HNDFs are treated with HG and ANM or N-acetylcysteine (NAC). In FIG. 3A, HNDFs are incubated with ANM (10 μM) or NAC (100 μM) in the presence of HG (30 mM) for 72 h. Cell-cycle distribution is measured by flow cytometer using PI. Percentage of cell population in each transition phase is shown in a histogram view.
HNDFs at a density of 5×10^5 cells in 10 cm dishes are treated with ANM or NAC in the presence or absence of HG for 72 h. Cells are collected, washed with PBS and fixed in 95% cold-ethanol, and kept at −20° C. overnight. The cell pellet is then washed again with PBS and centrifuged at 1500×g for 5 min. The pellet is re-suspended in 1 mL PI/Triton X-100 (20 μg/mL PI, 0.1% Triton X-100 and 0.2 mg/mL RNAse) and incubated on ice for 30 min. The total cellular DNA content is analyzed with a flow cytometer (Beckman Coulter FC500). Data are acquired and analyzed using CXP software (Beckman Coulter).

[2] = test system: pRb, cyclin D1, cyclin E, cyclin B1, CDK4, CDK6, CDK2 and Cdc2; assay: Western blot of cell-cycle regulatory proteins in HNDFs; settings: 72 h; for cyclin D1, CDK4, CDK6, cyclin E and CDK2 protein levels under HG: ANM 10 μM or NAC 100 μM + HG 30 mM
Description: To further clarify this effect, G1-S transition regulatory proteins are determined by immunoblotting. In FIG. 3B, western blot analysis is performed to determine the expression levels of cell-cycle regulatory proteins including, pRb, cyclin D1, cyclin E, cyclin B1, CDK4, CDK6, CDK2 and Cdc2; and GAPDH is served as an internal control.
(§1) Cells are lysed by either RIPA lysis buffer or nuclear and cytoplasmic extraction reagents (Thermo Fisher Scientific). Protein concentrations are determined by Bio-Rad protein assay reagent (Bio-Rad Laboratories, Hercules, Calif.). Equal amounts of protein samples (60 μg) are separated by 7-12% SDS-PAGE and the separated proteins are transferred onto polyvinylidene […] (PVDC) membrane overnight. The transferred protein membranes are blocked with 5% non-fat dried milk for 30 min, followed by incubation with specific primary antibodies overnight, and either horseradish peroxidase-conjugated goat anti-rabbit or anti-mouse antibodies for 2 h. The blots are detected using VL Chemi-Smart 3000 (Viogene Biotek, Sunnyvale, Calif.) with the enhanced chemiluminescence (ECL) western blotting reagent (Millipore, Billerica, Mass.).

[3] = test system: HO-1 and NQO-1; assay: Western blot of HO-1 and NQO-1 in HUVECs; settings: for NQO-1 expression in HUVECs: western blot, HG
Description: The intracellular ROS level is quantified by utilizing DCFH-DA assay. […] However, treatment of HUVECs with ANM resulted reduced ROS levels (6.1-fold), compared with HUVECs in HG that are not treated with ANM. In addition, in FIG. 9G, western blot analysis is performed to determine the protein expression levels of HO-1 and NQO-1.
as §1

[4] = test system: p53 and FoxO1; assay: Western blot of p53 and FoxO1 acetylation/phosphorylation in HNDFs; settings: for HG-induced p53 phosphorylation at Ser15: ANM 10 μM or NAC 100 μM + HG 30 mM; for total p53 and FoxO1 levels: HNDFs, with or without HG; for protection against HG-induced decrease in FoxO1 phosphorylation: co-treatment with HG 30 mM
Description: It is well known that p16^INK4A and p21^CIP1 are regulated by transcription factors p53 and FoxO1 followed by acetylation. […] In addition, p53 phosphorylation at Ser15 by their upstream kinases promotes transcriptional activation in response to DNA damage.
To further examine the phenomenon that HG-induced p53 activation is relayed by the p38 MAPK or JNK/SAPK cascade, cells are incubated with corresponding pharmacological inhibitors, SB203580, SP600125, PD98059 and LY294002 for p38MAPK, JNK/SAPK, ERK1/2 and P13K/AKT, respectively in the presence of HG.
The protein expression levels of SIRT-1, SIRT-6, p21^CIP1, SMP30, p53, FoxO and acetylation of p53 and FoxO1 are determined by western blot analysis.
as §1

[5] = test system: Nrf2; assay: Nrf2 nuclear localization by immunofluorescence in HNDFs; settings: ANM 10 μM or NAC 100 μM, 2 h
Description: Transcriptional activation of Nrf2 is dependent upon the rate of […] followed by disassociation from cytoplasmic Keap-1. In FIG. 5F, to determine the nuclear localization of Nrf2, HNDFs are incubated with ANM (10 μM) or NAC (100 μM) in the presence or absence or HG (30 mM) for 2 h. The protein expression and localization of Nrf2 are measured by immunofluorescence using Nrf2 specific primary antibody and fluorescein isothiocyanate-conjugated secondary antibody (green). The subcellular and nuclear localization of Nrf2 is photographed using a fluoroscence microscope. DAPI (1 μM) is used to stain the nucleus.
HNDFs at a density of 1×10^4 cells/well are cultured in an eight-well glass Nunc Lab-Tek chamber (ThermoFisher Scientific, Waltham, Mass.). Cells are treated with ANM or NAC in the presence or absence of HG for 2-72 h. After incubation, culture medium is removed and cells are fixed in 4% paraformaldehyde for 15 min, permeabilized with 0.1% Triton X-100 for 10 min, washed and blocked with 10% FBS in PBS, and then incubated overnight with the corresponding primary antibodies in 1.5% FBS. […] Next, the cells are stained with 1 μg/mL 4′,6-diamidino-2-phenylindole (DAPI, Cell Signaling Technology) for 5 min, washed with PBS, and visualized using a fluorescence microscope (Motic Electric Group) at 40× magnification.

## C=C(CCC(C)C1CCC2C3=C(C(=O)C(O)C21C)C1(C)CCC(O)C(C)C1CC3)C(C)C(=O)O (centres unmarked) [ANM, antcin M]
[1]
  cell population in the G0/G1 phase: 49.5%
[2]; ANM 10 μM + HG 30 mM
  cyclin B1 and Cdc2 levels: unaffected
  protein Rb phosphorylation under HG: significantly inhibits
[2]
  cyclin D1, CDK4, CDK6, cyclin E and CDK2 protein levels under HG: upregulated
[3]; ANM 10 μM or RES 5 μM + HG
  HO-1 expression in HUVECs in HG: significantly increase
[3]
  NQO-1 expression in HUVECs: unaffected
[4]; ANM 10 μM + HG 30 mM, 72 h
  HG-induced p53 and FoxO1 acetylation: barely observed
[4]; ANM 10 μM + HG, 72 h
  HG-induced p21^CIP1 expression and acetylation in p53 and FoxO1, control siRNA cells: significantly attenuated
[4]; ANM 10 μM + HG, 72 h, siSIRT-1
  p21^CIP1 expression, p53/FoxO1 deacetylation, SMP30 upregulation in SIRT-1 silenced cells: fails to inhibit
[4]
  HG-induced p53 phosphorylation at Ser15: significantly blocked
  total p53 and FoxO1 levels: neither ANM nor NAC affected
  protection against HG-induced decrease in FoxO1 phosphorylation: fails to protect
[5]
  Nrf2 expression in the nucleus: elevated Nrf2 expression in the nucleus

## CC(=O)N[C@@H](CS)C(=O)O [NAC, N-acetylcysteine, reference compound]
[1]
  cell population in the G0/G1 phase: partially blocks
[2]
  cyclin D1, CDK4, CDK6, cyclin E and CDK2 protein levels under HG: partially rescues
[3]
  NQO-1 expression in HUVECs: unaffected
[4]
  HG-induced p53 phosphorylation at Ser15: significantly blocked
  total p53 and FoxO1 levels: neither ANM nor NAC affected
  protection against HG-induced decrease in FoxO1 phosphorylation: fails to protect
[5]
  Nrf2 expression in the nucleus: elevated Nrf2 expression in the nucleus
